Measurements from US9603922B2, “Modulation of NKT cell activity with antigen-loaded CD1d molecules” (VACCINEX, INC., priority 2007, dated 2017).

Tests used:
Format in all cases: in vivo, mouse
B16 melanoma cells = experiment: Pretreatment and B16 melanoma lung metastasis; conditions: for Lung metastasis / tumor resistance in pretreated mice: 5 i.v. pretreatments every 3 days, then 700,000 B16 cells co-injected with same agent; for Lung metastasis / tumor development in naïve mice: no pretreatment, agent co-injected with B16 cells
Protocol: FIG. 4: Sustained iNKT activation in vivo due to repeated injections of αGalCer/sCD1d prevents formation of lung metastases. Mice were treated 5 times with PBS (Control, white), αGalCer (0.4 μg, light grey), or αGalCer/sCD1d (sCD1d, 20 μg, black) and then grafted with 700,000 B16 wild type cells plus co-injection of the respective treatment. 2 naive groups were included that had no pretreatment and got only tumor cell graft+co-injection of αGalCer (striped grey) or αGalCer/sCD1d (sCD1d, dark striped grey) respectively. Lung metastases formation was analysed 2 weeks after graft with the ImageJ k-means clustering program and results are expressed as percent of black metastatic surface over total lung surface. P values for αGalCer/sCD1d pretreated and naive+αGalCer groups compared to control *P<0.04, and compared to αGalCer pretreated group *P<0.02.
(§1) Quantification of lung metastasis. Metastatic nodule surface area was measured on 2560×1920 pixels photographs of the whole organs, taken on an Zeiss STEMI SV11 dissection microscope (Carl Zeiss, Jena, Germany) equipped with a PROGRES-C10plus Color Camera (Jenoptik, Jena, Germany). Each image was analyzed with the ImageJ program (rsb.info.nih.gov/ij/) using a k-means clustering algorithm (plugin available on ij-plugins.sourceforge.net). Images were segmented into 9 segments cluster tolerance 1×10−4, randomization seed: 48) and the appropriate segments were selected based on the color of the metastasis reaching the surface of the organ. The area of the sum of selected color segments was expressed as percentage of the area occupied by the lungs. Both sides of the lung were analyzed. This method takes into account both the number and the size of the tumor nodules. Since nodules are often heterogenous the percentage of metastatic lung surface area is a more sensitive measure of tumor growth than just counting tumor nodules.
This is most likely due to the anergic state of iNKT cells induced by free αGalCer. In contrast, in naïve mice, opposite results were obtained. […] The key finding is that multiple prior injections of αGalCer loaded recombinant CD1d molecules but not of free αGalCer confers resistance to tumor development.

B16 wild type cells = experiment: Precoating experiment, lung metastases of B16 wild type cells; conditions: cells pre-incubated with agent, injected i.v. into naïve mice
Protocol: FIG. 5: Precoating experiment.
as §1
This affect may be caused by a transient association of the αGalCer with the tumor cell surface, or by transient uptake of the free αGalCer.

B16-HER2 melanoma cells = experiment: Systemic treatment of B16-HER2 lung metastases; conditions: 5 i.v. injections starting 48 hours after tumor graft
Protocol: FIG. 6: In vivo anti tumor activity—Systemic Treatment. a Mice were grafted i.v. with 700.000 B16-HER2 cells and i.v. treatment was started 48 hours later. Mice were injected i.v. 5 times every 2 to 3 days with PBS (control), αGalCer (0.4 μg), αGalCer/sCD1d (sCD1d, 25 μg), or αGalCer/CD1d-anti-HER2 fusion (Fusion, 40 μg). Lung metastases were analysed after 3 weeks by the ImageJ k-means clustering program and expressed as percent metastatic surface over total lung surface. […] Mice were injected i.v. with 700,000 B16-HER2 cells and treatment with PBS (Control), αGalCer, or αGalCer/CD1d-anti-HER2 fusion protein (Fusion) was started 6 days after graft. Mice were treated 3× i.v. every 2-3 days and lung metastases were analyzed after 3 weeks as described above.
Quantification of lung metastasis. Metastatic nodule surface area was measured on 2560×1920 pixels photographs of the whole organs, taken on an Zeiss STEMI SV11 dissection microscope (Carl Zeiss, Jena, Germany) equipped with a PROGRES-C10plus Color Camera (Jenoptik, Jena, Germany). Each image was analyzed with the ImageJ program (rsb.info.nih.gov/ij/) using a k-means clustering algorithm (plugin available on ij-plugins.sourceforge.net). […] The area of the sum of selected color segments was expressed as percentage of the area occupied by the lungs. Both sides of the lung were analyzed. […]

[1] = tested on: H-2Kb/OVA specific CD8 T cells; experiment: Adjuvant effect on H-2Kb/OVA specific CD8 T cells upon ovalbumin immunization; conditions: for Frequency of Kb/OVA specific CTLs in the spleens, of total CD8: after OVA peptide boost, 5 days in vitro culture without further stimulation; for Frequency of specific T cells: after boost and in vitro re-stimulation with same stimuli; for H-2Kb/OVA257-264 tetramer CD8 double positive T cells after priming: priming with 200 μg ovalbumin plus adjuvant
Protocol: FIG. 8: αGalCer loaded sCD1d acts as a strong adjuvant for the expansion of antigen-specific T cells upon active immunization. a kinetics of expansion of H-2K^b/OVA specific CTLs. Mice were primed with 200 μg ovalbumin either as such (i.v.) or with MONTANIDE™ adjuvant (3:7 ratio, s.c.) or with 1 μg αGalCer or 20 μg αGalCer/sCD1d (i.v.). Mice were bled every 5-7 days and PBMC were stained with H-2K^b/oVA tetramer+anti-CD8. Results were expressed as tetramer+ and CD8+ […] as a percentage of total CD8+ T cells. Mice were boosted with OVA peptide (20 μg) on day 22 employing the same adjuvants and route of injection as for primary immunization. b Ten days later, mice were sacrificed and splenocytes were cultured another five days either with no stimuli or with the same stimuli and adjuvants as for the in vivo boost. Frequency of OVA specific T cells was measured as in a. c The presence of mature DC in the same cultures as in b was analyzed by surface staining with anti CD11c and anti CD40 antibodies.
Together with active OVA immunization: An adjuvant effect has previously been attributed to free αGalCer and its potential use in vaccination has been proposed (Silk, J. D., et al. J Clin Invest 114:1800-1811 (2004)). […] In this context, the adjuvant effect on the expansion of antigen-specific T cells in the model of C57 BL/6 mice immunized with ovalbumin was investigated (Hermans, I. F., et al. J Immunol 171:5140-5147 (2003)). […] Furthermore, after boosting these same mice with OVA peptide in the same adjuvants in vivo and then 5 days in vitro culture without further stimulation, the frequency of K^b/OVA specific CTLs in the spleens reached up to 45% of total CD8 in mice that received a boost of OVA peptide with αGalCer/sCD1d, whereas the frequency was 12% in mice boosted with peptide and αGalCer alone (FIG. 8b). A further increase could be obtained by in vitro re-stimulation with the same respective stimuli and the frequency of specific T cells reached close to 70% in both αGalCer and αGalCer/sCD1d-treated mice (FIG. 8b).

Row | Molecule | Lung metastasis / tumor resistance in pretreated mice (B16 melanoma cells) | Lung metastasis / tumor development in naïve mice (B16 melanoma cells) | Lung metastases of precoated B16 wild type cells (B16 wild type cells) | Anti tumor effect in words (B16-HER2 melanoma cells) | Frequency of Kb/OVA specific CTLs in the spleens, of total CD8 [1] | Frequency of specific T cells [1] | H-2Kb/OVA257-264 tetramer CD8 double positive T cells after priming [1]
1 | CCCCCCCCCCCCCCCCCCCCCCCCCC(=O)N[C@@H](CO[C@H]1O[C@H](CO)[C@H](O)[C@H](O)[C@H]1O)[C@H](O)[C@H](O)CCCCCCCCCCCCCC [αGalCer, α-galactosylceramide, reference compound] | not able to block lung metastasis | completely blocked tumor development | completely inhibited tumor development | no significant anti tumor effect | 12% | ~70% | no H-2K^b/OVA257-264 tetramer CD8 double positive T cells could be detected
2 | αGalCer/sCD1d: soluble monomeric mouse β2m-CD1d, His-tagged, loaded with αGalCer (protein) IQKTPQIQVYSRHPPENGKPNILNCYVTQFHPPHIEIQMLKNGKKIPKVEMSDMSFSKDWSFYILAHTEFTPTETDTYACRVKHASMAEPKTVYWDRDMGGGGSGGSGSGGGSEAQQKNYTFRCLQMSSFANRSWSRTDSVVWLGDLQTHRWSNDSATISFTKPWSQGKLSNQQWEKLQHMFQVYRVSFTRDIQELVKMMSPKEDYPIEIQLSAGCEMYPGNASESFLHVAFQGKYVVRFWGTSWQTVPGAPSWLDLPIKVLNADQGTSATVQMLLNDTCPLFVRGLLEAGKSDLEKQEKPVAWLSSVPSSADGHRQLVCHVSGFYPKPVWVMWMRGDQEQQGTHRGDFLPNADETWYLQATLDVEAGEEAGLACRVKHSSLGGQDIILYWSSGSGGHHHHHH | rendered them resistant to B16 melanoma cells | had no effect | not able to block tumor growth | anti tumor activity which was very variable from mouse to mouse | up to 45% | ~70% | could be detected
